Like-named read-outs stand apart in the source and are kept apart here.
Legend:
PTP1B [1] = molecular target: T1, PTP1B (Homo sapiens, UniProt P18031); assay: in vitro EnzChek phosphate assay of PTP1B against synthesized phosphopeptides; format: biochemical; conditions: for kcat/Km / Km: peptide as substrate of PTP1B, value ± spread as printed; for recognition as substrate by PTP1B (in words): compared with Src positive control peptide
T1 construct: PTP1B was expressed and purified as described previously; made in house
T1 sequence (P18031 1-435): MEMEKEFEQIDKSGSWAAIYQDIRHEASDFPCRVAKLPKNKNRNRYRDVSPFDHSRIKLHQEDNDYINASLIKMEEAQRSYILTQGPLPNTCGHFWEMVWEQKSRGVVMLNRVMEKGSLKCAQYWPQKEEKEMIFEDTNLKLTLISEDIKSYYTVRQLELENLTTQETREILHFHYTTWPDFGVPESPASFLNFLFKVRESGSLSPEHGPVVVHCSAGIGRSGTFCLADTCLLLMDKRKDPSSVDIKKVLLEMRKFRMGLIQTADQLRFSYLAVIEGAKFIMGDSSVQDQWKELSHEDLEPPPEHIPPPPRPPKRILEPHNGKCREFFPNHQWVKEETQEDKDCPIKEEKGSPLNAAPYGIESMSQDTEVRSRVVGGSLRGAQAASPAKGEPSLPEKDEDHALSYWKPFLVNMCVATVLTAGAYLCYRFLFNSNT
Description: (§1) To test if the predicted phosphopeptides would indeed be in vitro substrates of PTP1B, we synthesized six of these peptides. The two peptides from JAK1 were not synthesized and tested because the sequences are highly similar to the ones of the known substrates JAK2[20] and MET[21] that were also detected by our procedure. […] (Table 1).
PTP1B was expressed and purified as described previously.[3]
The in vitro EnzChek phosphate assay was carried out with the commercial kit from Molecular Probes as described previously.[23]

[2] = Solubility of synthesized peptide (observation); format: physicochemical; conditions: qualitative; peptide therefore not tested in the enzymatic assay
Excerpt: as §1

PTP1B [3] = molecular target: T1, PTP1B; conditions: JAK2-derived phosphopeptide as PTP1B substrate; cited from earlier work
Excerpt: as §1, with “With the ex ...” for “(Table 1).”

Substance	kcat/Km (PTP1B [1])	Km (PTP1B [1]; read-out: Km) [µM]	also measured
DNEDVpYTFKTP [Peptide 3, Predicted PTP1B phosphopeptide substrate from GAB2, pY site 293]	9.2 ± 1.6 ×10^−5 M^−1 s^−1	17.1 ± 4.1	–
DPSDNpYAEPID [Peptide 1, Predicted PTP1B phosphopeptide substrate from ARHGAP5, pY site 1090]	11.6 ± 3.4 ×10^−5 M^−1 s^−1	28.5 ± 5	–
EEEDIpYEVLPD [Peptide 2, Predicted PTP1B phosphopeptide substrate from SKAP1, pY site 271]	27.9 ± 13.9 ×10^−5 M^−1 s^−1	14.7 ± 3.2	–
IEDNEYTARQG [Fyn peptide, synthesized predicted phosphopeptide from Fyn]	–	–	solubility [2]: poor solubility
IEDPpYpYGNDSD [Peptide 4, Predicted PTP1B phosphopeptide substrate from ACP1, pY site 133]	8.9 ± 1.1 ×10^−5 M^−1 s^−1	20.1 ± 4.6	–
KEpYpYKVK	–	–	Km (PTP1B [3]): 12.7 µM; kcat/Km (PTP1B [3]): 0.000232 M⁻¹ s⁻¹
KKKKpYPKK [Peptide 7, reference compound]	Inactive	–	recognition as substrate by PTP1B (in words) (PTP1B [1]): not recognized; Km (PTP1B [1]): Inactive
LGSRApYPHFCA [Peptide 8]	–	> 300	recognition as substrate by PTP1B (in words) (PTP1B [1]): recognized it poorly
QENPIpYKSPIN [Peptide 5, Predicted PTP1B phosphopeptide substrate from ITGB1, pY site 783]	7.1 ± 3.0 ×10^−5 M^−1 s^−1	21.7 ± 8.9	–
STEPQpYQPGEN [Peptide 6, positive control peptide from Src as known substrate of PTP1B, reference compound]	9.0 ± 3.7 ×10^−5 M^−1 s^−1	29.1 ± 5.3	–
